Measurements from patent US9072295B2, “Herbicidal compositions” (Syngenta Participations AG, priority 2011, dated 2015).

Columns and labels:
Winter wheat = test: Field test: herbicidal damage to winter wheat after pre-emergence fomesafen, with or without safener A seed treatment; settings: seed treatment 100 g/100 kg seed; fomesafen up to 560 g/ha
Experimental: Winter wheat seed is treated with safener A (1-[4-(N-2-methoxybenzoylsulfamoyl)phenyl]-3-methylurea) at 100 g safener/100 kg of seed. Control seed is also included which contains no safener seed treatment. The wheat seed is then planted in a field as a randomized block design including four replications.

[1] = system: maize varieties (LEXXOR, PACTOL, CLAXXON, GARLAND and SUNDANCE); test: Greenhouse study: herbicidal damage to maize after pre-emergence PPGO inhibiting herbicides, with or without safener seed treatment; assay type: in vivo; settings: seed treatment 1 g/kg seed; 8 DAA
Experimental: A greenhouse study is performed to evaluate the safener response of various maize varieties to various PPGO inhibiting herbicides. […] Control seed is also included in the test which contains no safener seed treatment. Herbicide treatments are applied pre-emergence, at the indicated application rates, using a laboratory tracksprayer with a TeeJet 11002VS nozzle. The sprayer is set to deliver an output of 200 L/ha by applying an air pressure of 2 bar. The treated and control seeds are then planted in the treated sandy loam soil contained in 10 cm deep plastic trays and watered from the top of the trays as needed.

## CNC(=O)Nc1ccc(S(=O)(=O)NC(=O)c2ccccc2OC)cc1 [Safener A, 1-[4-(N-2-methoxybenzoylsulfamoyl)phenyl]-3-methylurea]
Winter wheat
  Safening of fomesafen in winter wheat: highly effective safening
[1]
  Safening against sulfentrazone in maize: particularly good safening
  Safening of the various PPGO inhibiting herbicides tested in maize: highly effective safening
